Compound | melting point
O=C(N[C@@H](CC1CCCC1)C(=O)NC1CCCN(C(=O)OCc2ccccc2)CC1=O)c1ccco1 (stereo partly drawn) [Example 61, 4-{(S)-3-Cyclopentyl-2-[(1-furan-2-yl-methanoyl)-amino]-propanoylamino}-3-oxo-azepane-1-carboxylic acid benzyl ester] | 72 to 74 °C
O=C(N[C@@H](CC1CCCC1)C(=O)NC1CCCN(C(=O)OCc2ccccc2)CC1=O)c1ccco1 (stereo partly drawn) [Example 62, 4-{(S)-3-Cyclopentyl-2-[(1-furan-2-yl-methanoyl)-amino]-propanoylamino)-3-oxo-azepane-1-carboxylic acid benzyl ester] | 66 to 68 °C
O=C(N[C@@H](CC1CCCC1)C(=O)NC1CCCN(S(=O)(=O)c2ccccn2)CC1=O)c1ccco1 (stereo partly drawn) [Example 63, Furan-2-carboxylic acid {(S)-2-cyclopentyl-1-[3-oxo-1-(pyridine-2-sulfonyl)-azepan-4-ylcarbamoyl]ethyl}-amide] | 81 to 84 °C
O=C(N[C@@H](CC1CCCC1)C(=O)NC1CCCN(S(=O)(=O)c2ccccn2)CC1=O)c1ccco1 (stereo partly drawn) [Example 64, Furan-2-carboxylic acid {(S)-2-cyclopentyl-1-[3-oxo-1-(pyridine-2-sulfonyl)-azepan-4-ylcarbamoyl]ethyl}-amide] | 77 to 80 °C
CS(=O)(=O)N1CCCC(NC(=O)[C@H](CC2CCCC2)NC(=O)c2ccco2)C(=O)C1 (stereo partly drawn) [Example 65, Furan-2-carboxylic acid [(S)-2-cyclopentyl-1-(1-methanesulfonyl-3-oxo-azepan-4ylcarbamoyl)-ethyl]-amide] | 167 to 170 °C
CS(=O)(=O)N1CCCC(NC(=O)[C@H](CC2CCCC2)NC(=O)c2ccco2)C(=O)C1 (stereo partly drawn) [Example 66, Furan-2-carboxylic acid [(S)-2-cyclopentyl-1-(1-methanesulfonyl-3-oxo-azepan-4-ylcarbamoyl)-ethyl]-amide] | 158 to 161 °C
O=C(N[C@@H](CC1CCCC1)C(=O)NC1CCCN(S(=O)(=O)c2ccccc2)CC1=O)c1ccco1 (stereo partly drawn) [Example 67, Furan-2-carboxylic acid [(S)-1-(1-benzenesulfonyl-3-oxo-azepan-4 ylcarbamoyl)-2-cyclopentyl-ethyl]-amide] | 88 to 90 °C
O=C(N[C@@H](CC1CCCC1)C(=O)NC1CCCN(S(=O)(=O)c2ccccc2)CC1=O)c1ccco1 (stereo partly drawn) [Example 68, Furan-2-carboxylic acid [(S)-1-(1-benzenesulfonyl-3-oxo-azepan-4-ylcarbamoyl)-2-cyclopentyl-ethyl]-amide] | 166 to 167 °C
O=C(N[C@@H](CC1CCCC1)C(=O)NC1CCCN(C(=O)c2ccco2)CC1=O)c1ccco1 (stereo partly drawn) [Example 69, Furan-2-carboxylic acid {(S)-2-cyclopentyl-1-[1-(1-furan-2-yl-methanoyl)-3-oxo-azepan-4-ylcarbamoyl]-ethyl}-amide] | 88 to 89 °C
O=C(N[C@@H](CC1CCCC1)C(=O)NC1CCCN(C(=O)c2ccco2)CC1=O)c1ccco1 (stereo partly drawn) [Example 70, Furan-2-carboxylic acid {(S)-2-cyclopentyl-1-[1-(1-furan-2-yl-methanoyl)-3-oxo-azepan-4-ylcarbamoyl]-ethyl}-amide] | 85 to 88 °C
O=C(N[C@@H](CC1CCCC1)C(=O)NC1CCCN(C(=O)c2ccccc2)CC1=O)c1ccco1 (stereo partly drawn) [Example 71, Furan-2-carboxylic acid {(S)-2-cyclopentyl-1-[3-oxo-1-(1-phenyl-methanoyl)-azepan-4-ylcarbamoyl]-ethyl}-amide] | 101 to 103 °C
O=C(N[C@@H](CC1CCCC1)C(=O)NC1CCCN(C(=O)c2ccccc2)CC1=O)c1ccco1 (stereo partly drawn) [Example 72, Furan-2-carboxylic acid {(S)-2-cyclopentyl-1-[3-oxo-1-(1-phenyl-methanoyl)-azepan-4-ylcarbamoyl]-ethyl}-amide] | 97 to 100 °C
